{
  "source": "paper PMC2120771",
  "about": "(The Journal of Cell Biology, 1996)",
  "key": {"[1]": {"test_system": "profilin-VASP", "conditions": "in vitro; ref Reinhard et al., 1995; cited from earlier work"}, "[2]": {"test_system": "Shigella flexneri M90T", "assay": "Shigella intracellular motility in PtK2 cells before and after microinjection", "type": "cell-based"}, "[3]": {"test_system": "Listeria monocytogenes", "conditions": "microinjection; ref Southwick and Purich, 1995; cited from earlier work"}, "[4]": {"conditions": "intracellular concentration 10 μM"}, "[5]": {"conditions": "intracellular 80 nM, 2-4 min after microinjection"}},
  "data": [
    {"substance": "(GPPPPP)3 [VASP peptide]", "values": [
      {"measurement": "Dissociation of profilin from VASP", "setting": "[1]", "result": "can dissociate profilin from VASP in vitro"},
      {"measurement": "Intracellular concentration that inhibits Shigella movement", "setting": "[2]; PtK2 cells, microinjection, estimated intracellular concentration", "result": 10, "unit": "µM"},
      {"measurement": "Postinjection/preinjection velocity", "setting": "[2]; [4]", "result": 0.15},
      {"measurement": "Postinjection velocity", "setting": "[2]; intracellular concentration 10 μM, mean, SD", "result": "0.02 - 0.05 μm/s"},
      {"measurement": "Effect on Shigella motility", "setting": "[2]; intracellular concentrations 2 and 6 μM (Fig. 7 B), large standard deviations", "result": "variable inhibition"}
    ]},
    {"substance": "poly-L-proline [reference compound]", "values": [
      {"measurement": "Effect on Shigella velocity", "setting": "[2]; increasing intracellular concentrations (Fig. 8 A), each point mean of 20-40 velocity measurements", "result": "dose-dependent slowing of bacterial velocity"}
    ]},
    {"substance": "YDPAPPPPPP [mosquito oostatic factor]", "values": [
      {"measurement": "Effect on Listeria locomotion", "setting": "[3]", "result": "inhibits Listeria locomotion"}
    ]},
    {"substance": "CFEFPPPPTDE [Act A peptide]", "values": [
      {"measurement": "Time after injection at which bacterial motility ceases", "setting": "[2]; 800 nM needle concentration, estimated intracellular concentration 80 nM", "result": "≤ 30", "unit": "s"},
      {"measurement": "Time after injection at which phase-dense actin tails disappear", "setting": "[2]; estimated intracellular concentration 80 nM", "result": "≤ 30", "unit": "s"},
      {"measurement": "Fraction of bacteria that resume migration", "setting": "[2]; [5]", "result": "One quarter"},
      {"measurement": "Rate of resumed movement relative to velocities measured before injection", "setting": "[2]; [5]", "result": "25-30%"},
      {"measurement": "Effect on Shigella intracellular movement", "setting": "[2]; intracellular concentration 8 nM (Fig. 5 B)", "result": "fails to inhibit"},
      {"measurement": "Postinjection/preinjection velocity", "setting": "[2]; intracellular concentration 80 nM", "result": 0.07},
      {"measurement": "Effect on Shigella intracellular movement", "setting": "[2]; intracellular concentrations 400-800 nM (Fig. 5 B)", "result": "consistently block intracellular movement"}
    ]},
    {"substance": "VKSKIGSTDNIKYZPKGG [MAP-2 peptide, reference compound]", "values": [
      {"measurement": "Postinjection/preinjection velocity", "setting": "[2]; [4]", "result": 1.00}
    ]}
  ]
}
